# According to ChEMBL document CHEMBL1153047, “Discovery of N-[(1-aryl-1H-indazol-5-yl)methyl]amides derivatives as smoothened antagonists for inhibition of the hedgehog pathway” (Bioorg Med Chem Lett, 2009):
# Molecular target: Protein smoothened (Homo sapiens, UniProt Q99835)
# Assay: Inhibition of BODIPY-cyclopamine to Smo in human HEK293 Flag-Smo cells in presence of 2% FCS
# Type: cell-based
# Chain of Protein smoothened (Q99835 whole entry): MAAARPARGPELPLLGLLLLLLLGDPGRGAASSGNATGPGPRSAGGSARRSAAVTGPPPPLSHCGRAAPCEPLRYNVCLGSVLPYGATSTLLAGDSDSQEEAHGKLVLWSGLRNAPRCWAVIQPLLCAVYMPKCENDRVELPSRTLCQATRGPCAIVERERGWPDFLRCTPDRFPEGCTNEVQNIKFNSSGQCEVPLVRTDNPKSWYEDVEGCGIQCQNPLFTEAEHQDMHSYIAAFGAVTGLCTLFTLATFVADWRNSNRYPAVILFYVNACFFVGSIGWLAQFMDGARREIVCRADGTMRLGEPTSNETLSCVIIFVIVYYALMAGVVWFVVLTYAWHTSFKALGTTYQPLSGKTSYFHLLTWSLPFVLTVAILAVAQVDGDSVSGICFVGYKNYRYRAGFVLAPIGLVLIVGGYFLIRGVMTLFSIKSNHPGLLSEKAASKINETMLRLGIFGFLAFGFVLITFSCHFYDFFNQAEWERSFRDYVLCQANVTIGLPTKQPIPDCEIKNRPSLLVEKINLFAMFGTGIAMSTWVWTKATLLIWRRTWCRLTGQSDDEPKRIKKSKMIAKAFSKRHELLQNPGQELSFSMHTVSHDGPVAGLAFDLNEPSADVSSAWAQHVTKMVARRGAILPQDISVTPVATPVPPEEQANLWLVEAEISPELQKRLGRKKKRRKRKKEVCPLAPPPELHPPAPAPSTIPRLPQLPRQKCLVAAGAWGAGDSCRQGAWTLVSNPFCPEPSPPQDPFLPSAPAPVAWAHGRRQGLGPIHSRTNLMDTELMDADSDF
compound,measurement,value
O=C(Cc1ccccc1)NCc1ccc2c(cnn2-c2ccc(F)cc2)c1,IC50,> 10 µM
